Earlier results as cited in patent publication US20030109670A1, “Cone snail peptides” (University of Utah Research Foundation, priority 2001, published 2003).
Ends that are not written are not given here.

What was measured:
[1] = IBS patients
[2] = in vivo
[3] = in vivo; remark: listed apart in the source

**Q.** Which results are given for Cc1[nH]cnc1CN1CCc2c(c3ccccc3n2C)C1=O [Alosteron]?
**A.** perception of colonic distension and gut compliance [1]: active in modifying the perception of colonic distension and gut compliance; abdominal pain, colonic transit, colon compliance ([1]; phase III compound): reduce abdominal pain, slow colonic transit and increase colon compliance

**Q.** Which “potency relative to morphine” value [2] does the source give for CSCC[C@@H]1NC(=O)[C@H](CC(C)C)NC(=O)[C@H](CCCNC(=N)N)NC(=O)[C@H](CO)NC(=O)[C@@H]2CSSC[C@@H]3NC(=O)[C@H](CO)NC(=O)CNC(=O)[C@H]([C@@H](C)O)NC(=O)[C@H](CSSC[C@H](N)C(=O)N[C@@H](CCCCN)C(=O)NCC(=O)N[C@@H](CCCCN)C(=O)NCC(=O)N[C@@H](C)C(=O)N[C@@H](CCCCN)C(=O)N2)NC(=O)[C@H](CSSC[C@@H](C(N)=O)NC(=O)[C@H](CCCCN)NC(=O)CNC(=O)[C@H](CO)NC(=O)[C@H](CCCNC(=N)N)NC3=O)NC(=O)[C@H](CC(=O)O)NC(=O)[C@H](Cc2ccc(O)cc2)NC1=O [ω-Conotoxin MVIIA] here?
**A.** Its value is “approximately 1000 times”.

**Q.** What about the “tolerance or addictive properties” value [2] of the same compound?
**A.** The value was “does not produce the tolerance or addictive properties of opiates”.

**Q.** For “Contulakin-G: 16 amino acid O-linked glycopeptide from Conus geographus, agonist of neurotensin receptors (QSEEGGSNATKKPYIL; also: O-linked glycan, site not given here; UniProt Q9XYR5 51-66, looked up)”, which “potency in inhibiting pain relative to neurotensin” value [3] is on record?
**A.** The value was “significantly more potent than neurotensin”.
